Data on 4 compounds can be found in patent US10071998B2, “Iminothiadiazine dioxides bearing an amine-linked substituent as BACE inhibitors, compositions, and their use” (Merck Sharp & Dohme Corp., priority 2015, dated 2018).

Where two headings read alike, the source gives them in different places.

The target of test [1] is Recombinant human soluble BACE-1 catalytic domain (Homo sapiens (Human), UniProt P56817). The test is described as follows: BACE-1 Ki Assay (BACE-1 HTRF FRET Assay). The format is biochemical. The note with it: read-out: BACE1 Ki. On the procedure: Assay 1: BACE-1 Ki Assay (BACE-1 HTRF FRET Assay)
The compounds of the invention were assessed for their ability to inhibit BACE-1 using the following assay.
The following reagents were used in this assay. Na^+-Acetate pH 5.0; 1% Brij-35; Glycerol; Dimethyl Sulfoxide (DMSO); Recombinant human soluble BACE-1 catalytic domain (>95% pure); APP Swedish mutant peptide substrate (QSY7-APP^swe-Eu): QSY7-EISEVNLDAEFC-Europium-amide.
A homogeneous time-resolved FRET assay can be used to determine IC50 values for inhibitors of the soluble human BACE-1 catalytic domain. This assay monitors the increase of 620 nm fluorescence that resulted from BACE-1 cleavage of an APPswedish APP^swe mutant peptide FRET substrate (QSY7-EISEVNLDAEFC-Europium-amide). This substrate contains an N-terminal QSY7 moiety that serves as a quencher of the C-terminal Europium fluorophore (620 nm Em). In the absence of enzyme activity, 620 nm fluorescence is low in the assay and increased linearly over 3 hours in the presence of uninhibited BACE-1 enzyme. Inhibition of BACE-1 cleavage of the QSY7-APP^swe-Eu substrate by inhibitors is manifested as a suppression of 620 nm fluorescence.
Varying concentrations of inhibitors at 3× the final desired concentration in a volume of 10 ul are preincubated with purified human BACE-1 catalytic domain (3 nM in 10 μl) for 30 minutes at 30° C. in reaction buffer containing 20 mM Na-Acetate pH 5.0, 10% glycerol, 0.1% Brij-35 and 7.5% DSMO. Reactions are initiated by addition of 10 μl of 600 nM QSY7-APP^swe-Eu substrate (200 nM final) to give a final reaction volume of 30 μl in a 384 well Nunc HTRF plate. The reactions are incubated at 30° C. for 1.5 hours. The 620 nm fluorescence is then read on a Rubystar HTRF plate reader (BMG Labtechnologies) using a […] delay followed by a 400 millisecond acquisition time window. Inhibitor IC50 values are derived from non-linear regression analysis of concentration response curves. Ki values are then calculated from IC50 values using the Cheng-Prusoff equation using a previously determined […] of 8 μM for the QSY7-APP^swe-Eu substrate at BACE-1. The example compounds of the invention were measured in this assay.

The target in test [2] is purified human autoBACE-2 (Homo sapiens (Human), UniProt Q9Y5Z0). The test is described as follows: BACE-2 Assay (BACE-HTRF assay). The class given is biochemical. The conditions noted are these: Table 1; Ki calculated from IC50 with Cheng-Prusoff equation; read-out: BACE2 Ki. On the procedure: Inhibitor IC50s, at purified human autoBACE-2 are determined in a time-resolved endpoint proteolysis assay that measures hydrolysis of the QSY7-EISEVNLDAEFC-Eu-amide FRET peptide substrate (BACE-HTRF assay). BACE-mediated hydrolysis of this peptide results in an increase in relative fluorescence (RFU) at 620 nm after excitation with 320 nm light. Inhibitor compounds, prepared at 3× the desired final concentration in 1× BACE assay buffer (20 mM sodium acetate pH 5.0, 10% glycerol, 0.1% Brij-35) supplemented with 7.5% DMSO are pre-incubated with an equal volume of autoBACE-2 enzyme diluted in 1×BACE assay buffer (final enzyme concentration 1 nM) in black 384-well NUNC plates for 30 minutes at 30° C. The assay is initiated by addition of an equal volume of the QSY7-EISEVNLDAEFC-Eu-amide substrate (200 nM final concentration, Km=8 μM […] for autoBACE-2) prepared in 1×BACE assay buffer supplemented with 7.5% DMSO and incubated for 90 minutes at 30° C. DMSO is present at 5% final concentration in the assay. Following laser excitation of sample wells at 320 nm, the fluorescence signal at 620 nm is collected for 400 ms following a 50 μs delay on a RUBYstar HTRF plate reader (BMG Labtechnologies). Raw RFU data is normalized to maximum (1.0 nM BACE/DMSO) and minimum (no enzyme/DMSO) RFU values. IC50 values are determined by nonlinear regression analysis (sigmoidal dose response, variable slope) of percent inhibition data with minimum and maximum values set to 0 and 100 percent respectively. Similar IC50s are obtained when using raw RFU data. The Ki values are calculated from the IC50 using the Cheng-Prusoff equation.

The subject of test [3] is CSF levels of Aβ1-40 (Aβ40). The experiment in a line: Aβ Reduction In Vivo (rat CSF Aβ40). The note with it: 3 h, Table 2, male CD IGS rats, 10 mg/kg oral gavage, CSF three hours after administration, percent change vs vehicle cohort. On the procedure:
Assay 3: Aβ Reduction In Vivo
The in vivo efficacy and/or potency of BACE inhibitors (test compounds) can be evaluated using a variety of animal models, including mouse, rat, dog, and monkey, and these animals can be wild type, transgenic, or gene knockout animals.
Generally, animals are administered (by oral gavage, intravenous injection, or by other suitable route) a test compound in doses ranging from, for example, 0.1 mg/kg (mg of compound per kg of animal body weight) to 100 mg/kg formulated in vehicles, such as cyclodextrin, phosphate buffer, hydroxypropyl methylcellulose or other suitable vehicles. One to twenty-four hours following the administration of compound, animals are sacrificed, and tissues (for example, brain, cerebrospinal fluid (CSF), and/or plasma) are collected for analysis of Aβ levels and/or test compound concentrations (Dovey et al., 2001, Journal of Neurochemistry, 76, 173-181). Tissue samples are processed appropriately and then analyzed for the presence of Aβ by specific sandwich ELISA assays based on electrochemiluminescence (ECL) technology.
For example, in the following assay for which data are reported below, male CD IGS rats (body weight approximately 120 g, Charles River Laboratories, Kingston, N.Y.) were used to asses lowering of CSF levels of Aβ1-40 (Aβ40) in the presence of compounds of the invention. At time 0, animals were administered by oral gavage a test compound at a dose of 10 mg/kg in 20% hydroxypropyl-β-cyclodextrin (dosing volume 5 mL/kg). A separate group of animals received 20% hydroxypropyl-β-cyclodextrin alone to serve as the vehicle control group. Three hours after administration, the rats were euthanized with excess CO2. Immediately following euthanasia, CSF was collected from the cisterna magna and quickly frozen on dry ice. Samples were stored at −80° C. until quantification of Aβ40 levels.
The measurement of endogenous rat Aβ40 in CSF relied on the 585 antibody (Ab585, BioSource, NONO585), which specifically recognizes the N-terminal sequence of rodent Aβ40, and on the monoclonal antibody, G2-10, which specifically recognizes the free C-terminus of Aβ40. Ab585 was labeled with biotin (b-Ab585) by first dialyzing the antibody sample extensively versus PBS (pH 7.8) to remove impurities, followed by dilution to between 1 and 2 mg/mL protein concentration. EZ-Link Sulfo-NHS-LC-Biotin (Pierce) was dissolved in PBS (pH 7.8) at a concentration of 1 mg/mL immediately prior to use. Ab585 was labeled with EZ-Link Sulfo-NHS-LC-biotin using a 10:1 biotin:antibody ratio by incubation at room temperature for 1 hour. The labeling reaction was quenched by addition of 1.0 M glycine to a final concentration of 0.1 M followed by 10 minute incubation at room temperature. Glycine was removed by extensive dialysis versus PBS.
For rat CSF Aβ40 determinations, a calibration curve of various concentrations of synthetic rodent Aβ40 was assayed in parallel with rat CSF samples in duplicate using an avidin-coated 96-well MSD plate (Mesoscale Diagnostics). Either 50 μL of rodent Aβ40 standards diluted in PBS (pH 7.4) supplemented with 1% BSA and 1% Tween-20 (standard diluent buffer) or 40 μL of standard diluent buffer plus 10 μL rat CSF were added to each 96 well avidin-coated plate. To each well was added 50 μL of 0.1 M HEPES (pH 7.5), 2% BSA, 2% Tween-20, 0.3 M NaCl (2× Aβ40 buffer) supplemented with the b-Ab585 capture and ruthenylated-G2-10 detection antibodies diluted to 1 μg/mL and 0.5 μg/mL, respectively. Plates were shaken for 1 min on a microplate shaker, covered to protect from light and incubated overnight (˜16 h) at 4° C. For detection, plates were first washed twice with 100 μL of 1×CSF Aβ40 buffer followed by addition of 160 μL of 1×MSD read buffer-T (Mesoscale Diagnostics) diluted in 1×CSF Aβ40 buffer. Plates were read on a MSD Sector Imager 2400 model (Mesoscale Diagnosotics). […]

Setting [4] is: Table 1, Ki calculated from IC50 with Cheng-Prusoff equation.

Sequence of purified human autoBACE-2 (Q9Y5Z0 63-473): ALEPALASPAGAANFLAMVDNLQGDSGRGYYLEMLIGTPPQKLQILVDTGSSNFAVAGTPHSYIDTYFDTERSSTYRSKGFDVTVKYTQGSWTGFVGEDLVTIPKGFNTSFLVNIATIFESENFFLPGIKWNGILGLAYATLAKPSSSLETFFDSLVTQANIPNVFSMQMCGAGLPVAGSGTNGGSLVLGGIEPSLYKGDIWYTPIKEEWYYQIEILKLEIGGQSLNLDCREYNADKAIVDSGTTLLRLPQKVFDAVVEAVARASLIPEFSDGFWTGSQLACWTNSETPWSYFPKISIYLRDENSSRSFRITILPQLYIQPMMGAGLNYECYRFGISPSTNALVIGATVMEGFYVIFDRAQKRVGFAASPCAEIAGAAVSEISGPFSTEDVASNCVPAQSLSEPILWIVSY
Sequence of Recombinant human soluble BACE-1 catalytic domain (P56817 75-416): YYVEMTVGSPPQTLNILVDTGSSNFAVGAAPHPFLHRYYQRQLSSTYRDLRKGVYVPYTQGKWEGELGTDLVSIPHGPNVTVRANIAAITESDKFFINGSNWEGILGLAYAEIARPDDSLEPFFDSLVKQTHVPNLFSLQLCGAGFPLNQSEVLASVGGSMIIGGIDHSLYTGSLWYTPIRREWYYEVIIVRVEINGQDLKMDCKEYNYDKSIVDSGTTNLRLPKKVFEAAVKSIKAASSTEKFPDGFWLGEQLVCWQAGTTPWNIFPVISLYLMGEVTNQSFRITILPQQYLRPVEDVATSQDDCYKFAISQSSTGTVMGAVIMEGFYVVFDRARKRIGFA

For `COc1cnc2c(Nc3ccc(F)c([C@]4(C)CS(=O)(=O)N(C)C(=N)N4)c3)nccc2n1` [Example 9, N-{4-fluoro-3-[(5R)-3-imino-2,5-dimethyl-1,1-dioxido-1,2,4-thiadiazinan-5-yl]phenyl}-2-methoxypyrido[3,4-b]pyrazin-5-amine], the Ki was 2.6 nM in test [1] (setting [4]), 2.6 nM in test [1] (Table 2) and 3.5 nM in test [2]. Also, the change in vivo at 10 mg/kg in test [3] was -68%.

As to `CN1C(=N)N[C@](C)(c2c(F)ccc(Nc3nccc4cc(C#N)cnc34)c2F)CS1(=O)=O` [Example 11, 8-({2,4-difluoro-3-[(5R)-3-imino-2,5-dimethyl-1,1-dioxido-1,2,4-thiadiazinan-5-yl]phenyl}amino)-1,7-naphthyridine-3-carbonitrile], the Ki in test [1] (setting [4]) is 2.1 nM; in test [1] (Table 2), 2.1 nM; in test [2], 1.1 nM. Moreover, in test [3], the change in vivo at 10 mg/kg is -50%.

In the case of `CN1C(=N)N[C@](C)(c2cc(Nc3nccc4nc(C(F)F)cnc34)ccc2F)CS1(=O)=O` [Example 12, 2-(difluoromethyl)-N-{4-fluoro-3-[(5R)-3-imino-2,5-dimethyl-1,1-dioxido-1,2,4-thiadiazinan-5-yl]phenyl}pyrido[3,4-b]pyrazin-5-amine], the Ki in test [1] (setting [4]) is 5.2 nM; in test [1] (Table 2), 5.2 nM; in test [2], 1.8 nM. Moreover, the change in vivo at 10 mg/kg in test [3] was -44%.

For `COc1cnc2c(Nc3ccc(F)c([C@]4(C)CS(=O)(=O)N(C)C(=N)N4)c3)ncnc2c1` [Example 14, N-{4-fluoro-3-[(5R)-3-imino-2,5-dimethyl-1,1-dioxido-1,2,4-thiadiazinan-5-yl]phenyl}-7-methoxypyrido[3,2-d]pyrimidin-4-amine], the inhibitory constant (Ki) in test [1] (setting [4]) is 4.3 nM; in test [1] (Table 2), 4.3 nM; in test [2], 4.4 nM. For the same compound, the change in vivo at 10 mg/kg in test [3] was -55%.
